Results: ChEMBL document CHEMBL6071146, “Synthesis and identification of a selective FGFR2 degrader with potent antiproliferative effects in gastric cancer” (Eur J Med Chem, 2024)
Calls of active or inactive are those of the source. No cut-off for these calls is given here.

Tests used:
[1] = test system: SNU-16; test: Antiproliferative activity against human SNU-16 cells incubated for 72 hrs by MTT assay; conditions: SNU-16, 72 h
[2] = Antiproliferative activity against human KATO III cells incubated for 72 hrs by MTT assay
[3] = Apparent oral clearance in Sprague-Dawley rat at 5 mg/kg, ip measured for 24 hrs by LC-MS/MS analysis; type: ADME, organism-based; conditions: in vivo
[4] = species: Homo sapiens; test: Induction of VEGFR2 (unknown origin) degradation
[5] = test system: BaF3; test: Antiproliferative activity against mouse BaF3 cells stably expressing TEL-FGFR3 incubated for 72 hrs bby CellTiter-Glo assay; conditions: BaF3, 72 h
[6] = Half life in Sprague-Dawley rat at 5 mg/kg, ip measured for 24 hrs by LC-MS/MS analysis; type: ADME, organism-based; conditions: in vivo
[7] = test system: SNU-16; test: cells; conditions: Homo sapiens, SNU-16, 24 h, read-out: Activity
Description: Induction of apoptosis in human SNU-16 cells assessed as viable cells at 1000 nM incubated for 24 hrs by Annexin V-FITC/PI staining based flow cytometry (Rvb = 77.12 %)

[8] = test system: KATO III; test: Induction of cell cycle arrest at G0/G1 phase in human KATO III cells assessed as reduction in CDK4 level at 500 to 1000 nM incubated for 24 hrs by Western blot analysis; type: functional, cell-based; conditions: dose 500-1000 nM
[9] = test system: BaF3; test: Antiproliferative activity against mouse BaF3 cells stably expressing TEL-FGFR4 incubated for 72 hrs bby CellTiter-Glo assay; conditions: BaF3, 72 h
[10] = MRT (infinity) in Sprague-Dawley rat at 5 mg/kg, ip measured for 24 hrs by LC-MS/MS analysis; type: ADME, organism-based; conditions: in vivo
[11] = Toxicity in BALB/c mouse xenografted with human SNU-16 cells assessed as damage in liver at 10 to 20 mg/kg, ip qd for 25 days by H and E staining based analysis; type: organism-based; conditions: in vivo, 600 h, dose 10-20 mg/kg, time 25 day
[12] = Apparent volume of distribution during terminal phase in Sprague-Dawley rat at 5 mg/kg, ip measured for 24 hrs by LC-MS/MS analysis; type: ADME, organism-based; conditions: in vivo, read-out: Vz/F
[13] = MRT (infinity) in Sprague-Dawley rat at 2 mg/kg, iv measured for 24 hrs by LC-MS/MS analysis; type: ADME, organism-based; conditions: in vivo
[14] = AUC (infinity) in Sprague-Dawley rat at 2 mg/kg, iv measured for 24 hrs by LC-MS/MS analysis; type: ADME, organism-based; conditions: in vivo
[15] = Half life in Sprague-Dawley rat at 2 mg/kg, iv measured for 24 hrs by LC-MS/MS analysis; type: ADME, organism-based; conditions: in vivo
[16] = test system: BaF3; test: Antiproliferative activity against mouse BaF3 cells stably expressing TEL-FGFR2 incubated for 72 hrs bby CellTiter-Glo assay; conditions: BaF3, 72 h
[17] = test system: SNU-16; test: Antitumor activity against human SNU-16 cells xenografted in BALB/c mouse assessed as decrease in tumor size at 10 to 20 mg/kg, ip qd for 25 days; type: functional, organism-based; conditions: dose 10-20 mg/kg, time 25.0 day
[18] = Toxicity in BALB/c mouse xenografted with human SNU-16 cells assessed as damage in spleen at 10 to 20 mg/kg, ip qd for 25 days by H and E staining based analysis; type: organism-based; conditions: in vivo, 600 h, dose 10-20 mg/kg, time 25 day
[19] = Volume of distribution at steady state in Sprague-Dawley rat at 2 mg/kg, iv measured for 24 hrs by LC-MS/MS analysis; type: ADME, organism-based; conditions: in vivo, read-out: Vdss
[20] = test system: KATO III; test: Induction of cell cycle arrest at G0/G1 phase in human KATO III cells assessed as reduction in Cyclin E level at 500 to 1000 nM incubated for 24 hrs by Western blot analysis; type: functional, cell-based; conditions: dose 500-1000 nM
[21] = Toxicity in BALB/c mouse xenografted with human SNU-16 cells assessed as damage in lung at 10 to 20 mg/kg, ip qd for 25 days by H and E staining based analysis; type: organism-based; conditions: in vivo, 600 h, dose 10-20 mg/kg, time 25 day
[22] = test system: SNU-16; test: Antitumor activity against human SNU-16 cells xenografted in BALB/c mouse assessed as decrease in tumor weight at 10 to 20 mg/kg, ip qd for 25 days; type: functional, organism-based; conditions: dose 10-20 mg/kg, time 25.0 day
[23] = Tmax in Sprague-Dawley rat at 5 mg/kg, ip measured for 24 hrs by LC-MS/MS analysis; type: ADME, organism-based; conditions: in vivo
[24] = test system: KATO III; test: Induction of cell cycle arrest at G0/G1 phase in human KATO III cells assessed as reduction in Cyclin D1 level at 500 to 1000 nM incubated for 24 hrs by Western blot analysis; type: functional, cell-based; conditions: dose 500-1000 nM
[25] = cells; conditions: Homo sapiens, KATO III, 24 h, read-out: Activity
Description: Induction of apoptosis in human KATO III cells assessed as viable cells at 500 nM incubated for 24 hrs by Annexin V-FITC/PI staining based flow cytometry (Rvb = 87.00 %)

[26] = AUC (0 to t) in Sprague-Dawley rat at 2 mg/kg, iv measured for 24 hrs by LC-MS/MS analysis; type: ADME, organism-based; conditions: in vivo
[27] = Toxicity in BALB/c mouse xenografted with human SNU-16 cells assessed as damage in heart at 10 to 20 mg/kg, ip qd for 25 days by H and E staining based analysis; type: organism-based; conditions: in vivo, 600 h, dose 10-20 mg/kg, time 25 day
[28] = Toxicity in BALB/c mouse xenografted with human SNU-16 cells assessed as obvious side effect at 10 to 20 mg/kg, ip qd for 25 days; type: organism-based; conditions: in vivo, 600 h, dose 10-20 mg/kg, time 25 day
[29] = test system: KATO III; test: Induction of apoptosis in human KATO III cells assessed as increase in cleaved caspase-3 level at 0.5 to 1 uM incubated for 24 hrs by Western blot analysis; type: functional, cell-based; conditions: dose 0.5-1 µM
[30] = test system: SNU-16; test: Antitumor activity against human SNU-16 cells xenografted in BALB/c mouse assessed as tumor growth suppression at 10 to 20 mg/kg, ip qd for 25 days; type: functional, organism-based; conditions: dose 10-20 mg/kg, time 25.0 day
[31] = Cmax in Sprague-Dawley rat at 5 mg/kg, ip measured for 24 hrs by LC-MS/MS analysis; type: ADME, organism-based; conditions: in vivo
[32] = cells; conditions: Homo sapiens, KATO III, 24 h, read-out: Activity; remark: listed apart in the source
Description: Induction of apoptosis in human KATO III cells assessed as viable cells at 1000 nM incubated for 24 hrs by Annexin V-FITC/PI staining based flow cytometry (Rvb = 87.00 %)

[33] = test system: KATO III; test: Induction of cell cycle arrest at G0/G1 phase in human KATO III cells assessed as reduction in CDK2 level at 500 to 1000 nM incubated for 24 hrs by Western blot analysis; type: functional, cell-based; conditions: dose 500-1000 nM
[34] = Toxicity in BALB/c mouse xenografted with human SNU-16 cells assessed as drug tolerance at 10 to 20 mg/kg, ip qd for 25 days; type: organism-based; conditions: in vivo, 600 h, dose 10-20 mg/kg, time 25 day
[35] = test system: BaF3; test: Antiproliferative activity against mouse BaF3 cells stably expressing TEL-FGFR1 incubated for 72 hrs bby CellTiter-Glo assay; conditions: BaF3, 72 h
[36] = test system: SNU-16; test: Induction of cell cycle arrest at G0/G1 phase in human SNU-16 cells assessed as increase in p21 level at 500 to 1000 nM incubated for 24 hrs by Western blot analysis; type: functional, cell-based; conditions: dose 500-1000 nM
[37] = Clearance in Sprague-Dawley rat at 2 mg/kg, iv measured for 24 hrs by LC-MS/MS analysis; type: ADME, organism-based; conditions: in vivo
[38] = Toxicity in BALB/c mouse xenografted with human SNU-16 cells assessed as damage in kidney at 10 to 20 mg/kg, ip qd for 25 days by H and E staining based analysis; type: organism-based; conditions: in vivo, 600 h, dose 10-20 mg/kg, time 25 day
[39] = AUC (infinity) in Sprague-Dawley rat at 5 mg/kg, ip measured for 24 hrs by LC-MS/MS analysis; type: ADME, organism-based; conditions: in vivo
[40] = AUC (0 to t) in Sprague-Dawley rat at 5 mg/kg, ip measured for 24 hrs by LC-MS/MS analysis; type: ADME, organism-based; conditions: in vivo
[41] = test system: SNU-16; test: Antitumor activity against human SNU-16 cells xenografted in BALB/c mouse at 20 mg/kg, ip qd for 25 days relative to control; conditions: SNU-16, 600 h, read-out: TGI
[42] = test system: SNU-16; test: Induction of apoptosis in human SNU-16 cells assessed as increase in cleaved caspase-3 level at 0.5 to 1 uM incubated for 24 hrs by Western blot analysis; type: functional, cell-based; conditions: dose 0.5-1 µM
[43] = test system: KATO III; test: Induction of cell cycle arrest at G0/G1 phase in human KATO III cells assessed as increase in p21 level at 500 to 1000 nM incubated for 24 hrs by Western blot analysis; type: functional, cell-based; conditions: dose 500-1000 nM
[44] = Toxicity in BALB/c mouse xenografted with human SNU-16 cells assessed as weight loss at 10 to 20 mg/kg, ip qd for 25 days; type: organism-based; conditions: in vivo, 600 h, dose 10-20 mg/kg, time 25 day
[45] = test system: SNU-16; test: cells; conditions: Homo sapiens, SNU-16, 24 h, read-out: Activity; remark: listed apart in the source
Description: Induction of apoptosis in human SNU-16 cells assessed as viable cells at 500 nM incubated for 24 hrs by Annexin V-FITC/PI staining based flow cytometry (Rvb = 77.12 %)

[46] = Oral bioavailability in Sprague-Dawley rat at 5 mg/kg measured for 24 hrs by LC-MS/MS analysis; type: ADME, organism-based; conditions: in vivo

Compound: COc1cc(OC)cc(N(CCNC(C)C)c2ccc3ncc(-c4cnn(CCOCCOCCOCC(=O)NCCNc5cccc6c5C(=O)N(C5CCC(=O)NC5=O)C6=O)c4)nc3c2)c1 (centres undefined)
- IC50 [1]: 1 nM
- IC50 [2]: 140 nM

Compound: COc1cc(OC)cc(N(CCNC(C)C)c2ccc3ncc(-c4cnn(CCC(=O)NCC(=O)NCCNc5cccc6c5C(=O)N(C5CCC(=O)NC5=O)C6=O)c4)nc3c2)c1 (centres undefined)
- IC50 [1]: 150 nM
- IC50 [2]: 457 nM

Compound: COc1cc(OC)cc(N(CCNC(C)C)c2ccc3ncc(-c4cnn(CCCCCCC(=O)NCCNc5cccc6c5C(=O)N(C5CCC(=O)NC5=O)C6=O)c4)nc3c2)c1 (centres undefined)
- CL/F [3]: 78.2 mL/min/kg
- Activity [4]: inactive
- IC50 [5]: 97.1 nM
- IC50 [1]: < 0.17 nM
- half-life [6]: 7.59 h
- viability at 1 µM [7]: 42.7%
- Activity [8]: Active
- IC50 [9]: 332 nM
- MRT inf [10]: 6.53 h
- Activity [11]: Non-Toxic
- Vd/F [12]: 51.4 L/kg
- MRT inf [13]: 2.27 h
- AUC(0-inf) [14]: 570 ng·h/mL
- half-life [15]: 4.65 h
- IC50 [16]: 22.7 nM
- Activity [17]: Active
- Activity [18]: Non-Toxic
- Vd [19]: 7.58 L/kg
- Activity [20]: Active
- Activity [21]: Non-Toxic
- Activity [22]: Active
- Tmax [23]: 0.25 h
- Activity [24]: Active
- viability at 0.5 µM [25]: 66.8%
- AUC(0-t) at 24 h [26]: 544 ng·h/mL
- Activity [27]: Non-Toxic
- Activity [28]: Non-Toxic
- Activity [29]: Active
- Activity [30]: Active
- Cmax [31]: 302 ng/mL
- viability at 1 µM [32]: 65%
- Activity [33]: Active
- Activity [34]: Non-Toxic
- IC50 [35]: 138 nM
- Activity [36]: Active
- IC50 [2]: < 0.17 nM
- clearance [37]: 59.3 mL/min/kg
- Activity [38]: Non-Toxic
- AUC(0-inf) [39]: 1070 ng·h/mL
- AUC(0-t) at 24 h [40]: 991 ng·h/mL
- inhibition in vivo at 20 mg/kg [41]: 117%
- Activity [42]: Active
- Activity [43]: Active
- Activity [44]: Non-Toxic
- viability at 0.5 µM [45]: 45.6%
- bioavailability [46]: 74.8%

Compound: COc1cc(OC)cc(N(CCNC(C)C)c2ccc3ncc(-c4cnn(C)c4)nc3c2)c1 [ERDAFITINIB]
- IC50 [1]: 1 nM
- viability at 1 µM [7]: 47.8%
- viability at 0.5 µM [25]: 70.7%
- viability at 1 µM [32]: 69.1%
- IC50 [2]: 4 nM
- inhibition in vivo at 20 mg/kg [41]: 104%
- viability at 0.5 µM [45]: 49.9%

Compound: COc1cc(OC)cc(N(CCNC(C)C)c2ccc3ncc(-c4cnn(CC(=O)NCC(=O)NCCNc5cccc6c5C(=O)N(C5CCC(=O)NC5=O)C6=O)c4)nc3c2)c1 (centres undefined)
- IC50 [1]: 65 nM
- IC50 [2]: 523 nM
